Test results published in patent US20240067632A1, “WEE1 Degrading Compounds and Uses Thereof” (Bristol-Myers Squibb Company, priority 2022, published 2024).
pEC50: −log10 of the molar value.

Key:
MKN45 cells = assay: MKN45 cell proliferation assay (Cell-Titer-Glo, 120 h); format: cell-based; settings: for pEC50: Homo sapiens, MKN-45, 120 h, Cell-Titer-Glo, growth inhibition, read-out: MKN45 Cell Prolif. 120 hr (EC50); for MKN45 Cell Prolif. 120 hr (Ymin-Obs): minimal percent of DMSO control observed in the concentrations tested
Summary of the method: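 Growth inhibition was read as blank-corrected Cell-Titer-Glo luminescence expressed as percent DMSO control after 120 h at 37 C, 400 cells/well. Compounds tested in triplicate as 10-point half-log series from 1 or 10 uM, 0.1% DMSO; four-parameter fit gave EC50, and lowest observed percent control was reported as Ymin-obs.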

WEE1 = molecular target: T1, WEE1 (Homo sapiens, UniProt P30291+Q96SW2); assay: WEE1-ePL degradation assay (LentiX-WEE1-ePL-GSPT1-ND cells, InCELL Hunter luminescence, 4 h); format: cell-based; settings: 293T-LentiX WEE1-ePL cells; for 293T-LentiX WEE1-ePL Degradation 4 hr (Ymin): lower limit of the fit (0 = luciferase inhibitor, Ymax = DMSO control); for DC50: read-out: 293T-LentiX WEE1-ePL Degradation 4 hr (EC50)
T1 construct: C-terminal ePL-tagged (DiscoverX, Fremont, CA) full-length WEE1 expression construct; expressed in transfected cells; host or cells: LentiX-HEK293T (Invitrogen), lentiviral transduction; co-expressing GSPT1-GN (G576N, lacking the first 158 amino acids)
Summary of the method: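 Luminescent readout (InCELL Hunter, 30 min RT) of WEE1-ePL levels in transduced HEK293T cells after 4 h compound exposure at 37 °C. Dosing: 10 points, 3-fold steps, top 1 uM or 10 uM. EC50 from four-parameter logistic fit; Ymax set by DMSO.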

Row | SMILES | pEC50 (MKN45 cells) | MKN45 Cell Prolif. 120 hr (Ymin-Obs) (MKN45 cells) | 293T-LentiX WEE1-ePL Degradation 4 hr (Ymin) (WEE1) | DC50 (WEE1) [nM]
1 | O=C1CCC(N2Cc3cc(O[C@H]4CCN(Cc5ccc6nc(N7C[C@H]8COC[C@H]8C7)ncc6c5)C4)ccc3C2=O)C(=O)N1 (stereo partly drawn) [3-(5-{[(3S)-1-({2-[(3aR,6aS)-hexahydro-1H-furo[3,4-c]pyrrol-5-yl]quinazolin-6-yl}methyl)pyrrolidin-3-yl]oxy}-1-oxo-2,3-dihydro-1H-isoindol-2-yl)piperidine-2,6-dione] | 7.89 | 12.43 | 38 | 14
2 | O=C1CCC(N2Cc3cc(O[C@H]4CCN(Cc5ccc6nc(N7C[C@H]8COC[C@H]8C7)ccc6c5)C4)ccc3C2=O)C(=O)N1 (stereo partly drawn) [3-(5-{[(3S)-1-({2-[(3aR,6aS)-hexahydro-1H-furo[3,4-c]pyrrol-5-yl]quinolin-6-yl}methyl)pyrrolidin-3-yl]oxy}-1-oxo-2,3-dihydro-1H-isoindol-2-yl)piperidine-2,6-dione] | 8.19 | 14.73 | 39 | 3.61
3 | CC1(C)C[C@H](c2ncc3cc(CN4CC[C@H](Oc5ccc6c(c5)CN(C5CCC(=O)NC5=O)C6=O)C4)ccc3n2)CCO1 (stereo partly drawn) [3-(5-{[(3S)-1-({2-[(4R)-2,2-dimethyloxan-4-yl]quinazolin-6-yl}methyl)pyrrolidin-3-yl]oxy}-1-oxo-2,3-dihydro-1H-isoindol-2-yl)piperidine-2,6-dione] | 7.71 | 9.866 | 27 | 65
4 | CC1(C)COCC[C@H]1c1ccc2cc(CN3CC[C@H](Oc4ccc5c(c4)CN(C4CCC(=O)NC4=O)C5=O)C3)ccc2n1 (stereo partly drawn) [3-(5-{[(3S)-1-({2-[(4R)-3,3-dimethyloxan-4-yl]quinolin-6-yl}methyl)pyrrolidin-3-yl]oxy}-1-oxo-2,3-dihydro-1H-isoindol-2-yl)piperidine-2,6-dione] | 8.10 | 11.03 | 41 | 3.31
5 | O=C1CCC(N2Cc3cc(O[C@H]4CCN(Cc5ccc6nc(N7CC[C@]78CCOC8)ncc6c5)C4)ccc3C2=O)C(=O)N1 (stereo partly drawn) [3-(5-{[(3S)-1-({2-[(4R)-6-oxa-1-azaspiro[3.4]octan-1-yl]quinazolin-6-yl}methyl)pyrrolidin-3-yl]oxy}-1-oxo-2,3-dihydro-1H-isoindol-2-yl)piperidine-2,6-dione] | 7.78 | 13.42 | 35.43 | 19.5
6 | O=C1CCC(N2Cc3cc(O[C@H]4CCN(Cc5ccc6nc(N7CC[C@]78CCOC8)ccc6c5)C4)ccc3C2=O)C(=O)N1 (stereo partly drawn) [3-(5-{[(3S)-1-({2-[(4R)-6-oxa-1-azaspiro[3.4]octan-1-yl]quinolin-6-yl}methyl)pyrrolidin-3-yl]oxy}-1-oxo-2,3-dihydro-1H-isoindol-2-yl)piperidine-2,6-dione] | 8.27 | 7.715 | 42 | 5.38
7 | CC1(C)C[C@@H](c2ncc3cc(CN4CC[C@H](Oc5ccc6c(c5)CN(C5CCC(=O)NC5=O)C6=O)C4)ccc3n2)CCO1 (stereo partly drawn) [3-(5-{[(3S)-1-({2-[(4S)-2,2-dimethyloxan-4-yl]quinazolin-6-yl}methyl)pyrrolidin-3-yl]oxy}-1-oxo-2,3-dihydro-1H-isoindol-2-yl)piperidine-2,6-dione] | 8.02 | 8.354 | 31 | 43.4
8 | CC1(C)COCC[C@@H]1c1ccc2cc(CN3CC[C@H](Oc4ccc5c(c4)CN(C4CCC(=O)NC4=O)C5=O)C3)ccc2n1 (stereo partly drawn) [3-(5-{[(3S)-1-({2-[(4S)-3,3-dimethyloxan-4-yl]quinolin-6-yl}methyl)pyrrolidin-3-yl]oxy}-1-oxo-2,3-dihydro-1H-isoindol-2-yl)piperidine-2,6-dione] | 8.77 | 6.945 | 34 | 1.78
9 | O=C1CCC(N2Cc3cc(O[C@H]4CCN(Cc5ccc6nc(N7CC[C@@]78CCOC8)ncc6c5)C4)ccc3C2=O)C(=O)N1 (stereo partly drawn) [3-(5-{[(3S)-1-({2-[(4S)-6-oxa-1-azaspiro[3.4]octan-1-yl]quinazolin-6-yl}methyl)pyrrolidin-3-yl]oxy}-1-oxo-2,3-dihydro-1H-isoindol-2-yl)piperidine-2,6-dione] | 7.88 | 12.16 | 34.39 | 14.6
10 | O=C1CCC(N2Cc3cc(O[C@H]4CCN(Cc5ccc6nc(N7CC[C@@]78CCOC8)ccc6c5)C4)ccc3C2=O)C(=O)N1 (stereo partly drawn) [3-(5-{[(3S)-1-({2-[(4S)-6-oxa-1-azaspiro[3.4]octan-1-yl]quinolin-6-yl}methyl)pyrrolidin-3-yl]oxy}-1-oxo-2,3-dihydro-1H-isoindol-2-yl)piperidine-2,6-dione] | 8.19 | 7.225 | 40 | 6.07
11 | O=C1CCC(N2Cc3cc(O[C@H]4CCN(Cc5ccc6nc(N7CCC[C@]78CCOC8)ncc6c5)C4)ccc3C2=O)C(=O)N1 (stereo partly drawn) [3-(5-{[(3S)-1-({2-[(5R)-7-oxa-1-azaspiro[4.4]nonan-1-yl]quinazolin-6-yl}methyl)pyrrolidin-3-yl]oxy}-1-oxo-2,3-dihydro-1H-isoindol-2-yl)piperidine-2,6-dione] | 8.18 | 6.57 | 32.5 | 12.3
12 | O=C1CCC(N2Cc3cc(O[C@H]4CCN(Cc5ccc6nc(N7CCC[C@]78CCOC8)ccc6c5)C4)ccc3C2=O)C(=O)N1 (stereo partly drawn) [3-(5-{[(3S)-1-({2-[(5R)-7-oxa-1-azaspiro[4.4]nonan-1-yl]quinolin-6-yl}methyl)pyrrolidin-3-yl]oxy}-1-oxo-2,3-dihydro-1H-isoindol-2-yl)piperidine-2,6-dione] | 7.96 | 17.85 | 46 | 6.81
13 | O=C1CCC(N2Cc3cc(O[C@H]4CCN(Cc5ccc6nc(N7CCC[C@@]78CCOC8)ncc6c5)C4)ccc3C2=O)C(=O)N1 (stereo partly drawn) [3-(5-{[(3S)-1-({2-[(5S)-7-oxa-1-azaspiro[4.4]nonan-1-yl]quinazolin-6-yl}methyl)pyrrolidin-3-yl]oxy}-1-oxo-2,3-dihydro-1H-isoindol-2-yl)piperidine-2,6-dione] | 8.03 | 9.64 | 34.08 | 12.6
14 | O=C1CCC(N2Cc3cc(O[C@H]4CCN(Cc5ccc6nc(N7CCC[C@@]78CCOC8)ccc6c5)C4)ccc3C2=O)C(=O)N1 (stereo partly drawn) [3-(5-{[(3S)-1-({2-[(5S)-7-oxa-1-azaspiro[4.4]nonan-1-yl]quinolin-6-yl}methyl)pyrrolidin-3-yl]oxy}-1-oxo-2,3-dihydro-1H-isoindol-2-yl)piperidine-2,6-dione] | 8.00 | 26.44 | 47 | 3.66
15 | O=C1CCC(N2Cc3cc(O[C@H]4CCN(Cc5ccc6nc(NC7CCOCC7)ccc6c5)C4)ccc3C2=O)C(=O)N1 (stereo partly drawn) [3-(5-{[(3S)-1-({2-[(oxan-4-yl)amino]quinolin-6-yl}methyl)pyrrolidin-3-yl]oxy}-1-oxo-2,3-dihydro-1H-isoindol-2-yl)piperidine-2,6-dione] | 8.37 | 7.78 | 37 | 10.6
16 | O=C1CCC(N2Cc3cc(O[C@H]4CCN(Cc5ccc6nc(COC7CCOCC7)ccc6c5)C4)ccc3C2=O)C(=O)N1 (stereo partly drawn) [3-(5-{[(3S)-1-({2-[(oxan-4-yloxy)methyl]quinolin-6-yl}methyl)pyrrolidin-3-yl]oxy}-1-oxo-2,3-dihydro-1H-isoindol-2-yl)piperidine-2,6-dione] | 8.66 | 7.295 | 33 | 4.73
17 | O=C1CCC(N2Cc3cc(O[C@H]4CCN(Cc5ccc6nc(COC7COC7)ccc6c5)C4)ccc3C2=O)C(=O)N1 (stereo partly drawn) [3-(5-{[(3S)-1-({2-[(oxetan-3-yloxy)methyl]quinolin-6-yl}methyl)pyrrolidin-3-yl]oxy}-1-oxo-2,3-dihydro-1H-isoindol-2-yl)piperidine-2,6-dione] | 8.27 | 9.252 | 23.84 | 122
18 | CN(c1ccc2cc(CN3CC[C@H](Oc4ccc5c(c4)CN(C4CCC(=O)NC4=O)C5=O)C3)ccc2n1)C1CCOCC1 (stereo partly drawn) [3-(5-{[(3S)-1-({2-[methyl(oxan-4-yl)amino]quinolin-6-yl}methyl)pyrrolidin-3-yl]oxy}1-oxo-2,3-dihydro-1H-isoindol-2-yl)piperidine-2,6-dione] | 8.46 | 8.45 | 32 | 1.82
19 | O=C1CCC(N2Cc3cc(O[C@H]4CCN(Cc5cnc6c(c5)CCO6)C4)ccc3C2=O)C(=O)N1 (stereo partly drawn) [3-(5-{[(3S)-1-({2H,3H-furo[2,3-b]pyridin-5-yl}methyl)pyrrolidin-3-yl]oxy}-1-oxo-2,3-dihydro-1H-isoindol-2-yl)piperidine-2,6-dione] | 5.69 | 40.58 | 42 | 60.1
